This note sets out measurements from patent US6855512B2, “Methods for identifying inhibitors of cytochrome P450RAI” (Allergan, Inc., priority 2000, dated 2005).

Bounds are passed on as bounds.

This assay deals with T1, P450RAI-1 (Homo sapiens, UniProt O43174).
T1 construct: expressed in transfected cells; host or cells: HeLa (stably transfected, hygromycin selection)
T1 sequence (O43174 1-497): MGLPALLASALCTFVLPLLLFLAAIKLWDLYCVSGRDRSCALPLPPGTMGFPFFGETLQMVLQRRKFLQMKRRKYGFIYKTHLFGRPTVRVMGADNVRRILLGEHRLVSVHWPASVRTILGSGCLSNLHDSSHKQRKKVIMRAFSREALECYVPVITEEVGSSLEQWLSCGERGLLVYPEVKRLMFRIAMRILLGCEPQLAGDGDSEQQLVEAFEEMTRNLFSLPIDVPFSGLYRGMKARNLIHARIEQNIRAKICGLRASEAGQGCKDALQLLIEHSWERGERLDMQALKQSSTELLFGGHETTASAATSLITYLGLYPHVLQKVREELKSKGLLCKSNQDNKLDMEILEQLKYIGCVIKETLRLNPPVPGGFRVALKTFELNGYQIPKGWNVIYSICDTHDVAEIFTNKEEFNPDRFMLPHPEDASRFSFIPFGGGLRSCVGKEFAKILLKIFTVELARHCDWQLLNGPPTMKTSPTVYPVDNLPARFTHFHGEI
The experiment in a line: P450RAI-1 cell-based inhibitor assay (intact HeLa). The settings on record: read-out: P450RAI INHIBITION DATA INTACT HELA IC50. The protocol:
P450RAI-1 Cell-Based Inhibitor Assay:
P450RAI-1 stably transfected HeLa cells are maintained in […] tissue culture dishes in Modified Eagle's Medium (MEM) containing 10% Fetal Bovine Serum (FBS) and 100 μg/ml hygromycin. Exponentially growing cells are harvested by incubating in trypsin. Cells are then washed with 1× Phosphate Buffered Saline (PBS) and plated in a 48-well plate at 5×10^5 cells in 0.2 ml MEM medium containing 10% FBS and 0.05 μCi [^3H]-RA in the presence or absence of increasing concentrations of the test compounds. The compounds are diluted in 100% DMSO and then added in triplicate wells at either 10, 1 or 0.1 μM final concentration. As a positive control for RA metabolism inhibition, cells are also incubated with ketoconazole at 100, 10 and 1 μM. Cell are incubated for 3 hours at 37° C. […] The water soluble radioactivity is quantified using β-scintillation counter. IC50 values represent the concentration of inhibitor required to inhibit all-trans-RA metabolism by 50 percent and are derived manually from log-transformed data.
The IC50 is the concentration that gives 50% inhibition. Consider `CC1(C)CCSc2ccc(C#Cc3ccc(CC(=O)O)cc3)cc21` [Compound 202], for which the IC50 worked out at 0.6 µM. Turning to `CC1(C)CC(C)(C)c2cc(C(=O)Nc3ccc(C(=O)O)c(F)c3)cc(Cl)c2O1` [Compound 203], the IC50 amounted to 0.62 µM.

For the compound `CC1(C)CC(C)(C)c2cc(C(=O)Nc3ccc(C(=O)O)c(F)c3)cc(C3CC3)c2O1` [Compound 204], the concentration for half-maximal inhibition (IC50) amounted to 0.7 µM. Then `CC1(C)CC(C)(C)c2cc(C(=O)Nc3ccc(C(=O)O)c(F)c3)cc(C(F)(F)F)c2O1` [Compound 205], with 1 µM; and `CCC1(CC)CC(C)(C)c2cc(C(=O)Nc3ccc(C(=O)O)c(F)c3)cc(Br)c2O1` [Compound 206], with 1.8 µM. For `CC1(C)CCCc2ccc(C#Cc3ccc(C(=O)O)cc3)cc21` [Compound 208] the value was 1 µM; for `CC(C)(C)c1cc(C#Cc2ccc(C(=O)O)cc2)cc(Cl)c1O` [Compound 209], 1.7 µM; for `CC1=C(/C=C/C#Cc2ccc(C(=O)O)cc2)C(C)(C)CCC1(C)C` [Compound 212], 7 µM. Then `COc1ccc(C#Cc2ccc(C(=O)O)cc2)cc1C12CC3CC(CC(C3)C1)C2` [Compound 214], with 1.9 µM; and `CC1(C)CCSc2ccc(C#Cc3ccc(C(=O)O)cc3)cc21` [Compound 215], with 6.2 µM. As to `CC1(C)CCC(C)(C)c2cc(C#Cc3ccc(C(=O)O)cc3)ccc21` [Compound 216], the IC50 was determined as 3.3 µM. For `CC1=C(/C=C/C#Cc2ccc(C(=O)O)cc2)C(C)(C)CCC1` [Compound 217] the value was 6.3 µM. `CC1(C)CCCc2cc(C#Cc3ccc(C(=O)O)cc3)ccc21` [Compound 218]: the 50% inhibitory concentration (IC50) was 3.4 µM. `CC1=C(/C=C/C#Cc2ccc(C(=O)O)cc2)C(C)(C)CCS1` [Compound 219]: the concentration for half-maximal inhibition (IC50) is 3.2 µM. Then `Cc1cc(C(=O)Nc2ccc(C(=O)O)c(F)c2)cc2c1OC(C)(C)CC2(C)C` [Compound 220], with 1 µM.

In the case of `CC1(C)CC(C)(C)c2cc(C(=O)Nc3ccc(C(=O)O)c(F)n3)cc(Cl)c2O1` [Compound 221], the IC50 was greater than 10 µM. For `CCOc1c(I)cc(C(=O)Nc2ccc(C(=O)O)c(F)c2)cc1C(C)(C)C` [Compound 222] the value was greater than 10 µM; for `CCOc1c(Br)cc(C(=O)Nc2ccc(C(=O)O)c(F)c2)cc1C(C)(C)C` [Compound 223], greater than 10 µM. Then `CC1(C)CC(C)(C)c2cc(C(=O)Nc3ccc(C(=O)O)c(F)c3)cc(-c3ccccc3)c2O1` [Compound 224], with 5.5 µM. For `CC1(C)CCOc2c(Br)cc(C(=O)Nc3ccc(C(=O)O)c(F)c3)cc21` [Compound 225] the value was greater than 10 µM. For `COc1cc(C(=O)Nc2ccc(C(=O)O)c(F)c2)cc2c1OC(C)(C)CC2(C)C` [Compound 226], the IC50 was greater than 10 µM. Consider `Cc1cc(C(=O)Nc2ccc(C(=O)O)cc2)cc2c1OC(C)(C)CC2(C)C` [Compound 227], for which the IC50 stood at 1.3 µM. For `CC1(C)CC(C)(C)c2cc(C(=O)Nc3ccc(C(=O)O)c(F)c3)ccc2O1` [Compound 228] the value was 6 µM; for `CC1=C(/C=C/C#Cc2ccc(C(=O)O)c(F)c2)C(C)(C)CCC1` [Compound 229], 1.6 µM; for `CC1(C)CCC(C)(C)c2cc(C#Cc3ccc(C(=O)O)c(F)c3)ccc21` [Compound 230], 5.1 µM. Regarding `CC1(C)CC(C)(C)c2cc(C(=O)Oc3ccc(C(=O)O)cc3)ccc2O1` [Compound 231], the half-inhibitory concentration (IC50) was found to be 4.1 µM. Regarding `CC1(C)CCC(O)c2ccc(C#Cc3ccc(C(=O)O)cc3)cc21` (stereo not drawn) [Compound 232], the IC50 came out at 4.2 µM.

For the compound `O=C(O)c1ccc2cc(-c3ccc(O)c(C45CC6CC(CC(C6)C4)C5)c3)ccc2c1` [Compound 233], the IC50 was 1.3 µM. In the case of `COc1ccc(-c2ccc3cc(C(=O)O)ccc3c2)cc1C12CC3CC(CC(C3)C1)C2` [Compound 234], the IC50 turned out to be 4.7 µM. On to `CC(C)(C)c1cc(C#Cc2ccc(C(=O)O)cc2)cc(C(C)(C)C)c1O` [Compound 235], for which the IC50 amounted to 7 µM.

For `CC1(C)CCC(C)(C)c2cc(C(=O)Nc3ccc(C(=O)O)c(F)c3)ccc21` [Compound 237], the IC50 was found to be 6.8 µM. In the case of `CC1(C)CCSc2ccc(C#Cc3ccc(C(=O)O)cn3)cc21` [Compound 238], the IC50 worked out at 7.2 µM. In the case of `CC1(C)CCSc2ccc(C#Cc3ccc(C(=O)O)s3)cc21` [Compound 240], the IC50 worked out at 3 µM.

Turning to `CC1(C)CCC(C)(C)c2cc(-c3ccc4cc(C(=O)O)ccc4c3)ccc21` [Compound 241], the half-inhibitory concentration (IC50) amounted to 5.5 µM. Then `CC1(C)CCC(C)(C)c2cc(C(=O)/C=C/c3ccc(C(=O)O)cc3)ccc21` [Compound 242], with 5.8 µM. For the compound `CC1(C)CCC(C)(C)c2cc(C(=O)Oc3ccc(C(=O)O)cc3)ccc21` [Compound 243], the half-inhibitory concentration (IC50) stood at 7.4 µM. In the case of `CC1=C(/C=C/C#Cc2ccc(C(=O)O)cn2)C(C)(C)CCC1` [Compound 244], the 50% inhibitory concentration (IC50) amounted to 5.1 µM. With `CC1=C(/C=C/C#Cc2ccc(C(=O)O)s2)C(C)(C)CCC1` [Compound 245], the IC50 came out at 3.3 µM. Then `CC1(C)CCC(C)(C)c2c1cc(O)c(C(=O)Nc1ccc(C(=O)O)cc1)c2F` [Compound 246], with 3.1 µM.
